Assay results taken from ChEMBL document CHEMBL1201862, “PubChem BioAssay data set” (2004).
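Cultured in 96-well plates, cells were exposed to test compound for 48 hours across five concentrations. Abbreviation: GI50, concentration required for 50% inhibition of growth.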 Active and inactive are the calls of the source. Rule as the data show it: active = GI50 up to about 1.1 µM and inactive = higher.

Key:
Assay in all cases: growth of human tumour cells (NCI), 48 h
ACHN = test system: ACHN
COLO 205 = test system: COLO 205
HCT-116 = test system: HCT-116
K562 = test system: K562
KM-20L2 = test system: KM-20L2
NCI-H23 = test system: NCI-H23
NCI-H460 = test system: NCI-H460
OVCAR-3 = test system: OVCAR-3
OVCAR-4 = test system: OVCAR-4
OVCAR-8 = test system: OVCAR-8
RXF 393 = test system: RXF 393
SF-268 = test system: SF-268
SF-539 = test system: SF-539
SK-MEL-5 = test system: SK-MEL-5
SK-OV-3 = test system: SK-OV-3
SNB-19 = test system: SNB-19
UO-31 = test system: UO-31
SK-MEL-28 = test system: SK-MEL-28
UACC-62 = test system: UACC-62
MCF7 = test system: MCF7

SMILES | GI50 (ACHN) | GI50 (COLO 205) | GI50 (HCT-116) | GI50 (K562) | GI50 (KM-20L2) | GI50 (NCI-H23) | GI50 (NCI-H460) | GI50 (OVCAR-3) | GI50 (OVCAR-4) | GI50 (OVCAR-8) | GI50 (RXF 393) | GI50 (SF-268) | GI50 (SF-539) | GI50 (SK-MEL-5) | GI50 (SK-OV-3) | GI50 (SNB-19) | GI50 (UO-31) | GI50 (SK-MEL-28) | GI50 (UACC-62) | GI50 (MCF7)
COC(=O)C1=C(C(=O)OC)C2(C)OC1C(=O)C21CC1 (centres undefined) | 19.3 µM (inactive) | 24.1 µM (inactive) | 19.8 µM (inactive) | 19.8 µM (inactive) | 23.7 µM (inactive) | 22 µM (inactive) | 24.9 µM (inactive) | 22.1 µM (inactive) | 10.6 µM (inactive) | 24 µM (inactive) | 16.8 µM (inactive) | 54.5 µM (inactive) | 20.7 µM (inactive) | > 100 µM (inactive) | > 100 µM (inactive) | > 100 µM (inactive) | 79.6 µM (inactive) | – | – | –
O=C(O)C1(c2ccccc2)CCCNCC1 (centres undefined) | > 100 µM (inactive) | > 100 µM (inactive) | > 100 µM (inactive) | > 100 µM (inactive) | > 100 µM (inactive) | > 100 µM (inactive) | > 100 µM (inactive) | > 100 µM (inactive) | > 100 µM (inactive) | > 100 µM (inactive) | > 100 µM (inactive) | > 100 µM (inactive) | – | > 100 µM (inactive) | > 100 µM (inactive) | > 100 µM (inactive) | > 100 µM (inactive) | > 100 µM (inactive) | > 100 µM (inactive) | –
CN(C)C(=S)/N=c1\ssc(=S)n1-c1ccccc1 | 16.7 µM (inactive) | – | 13.7 µM (inactive) | 17.1 µM (inactive) | 16.6 µM (inactive) | 24.2 µM (inactive) | 16.1 µM (inactive) | – | 15.9 µM (inactive) | 15.2 µM (inactive) | 18.7 µM (inactive) | 16.9 µM (inactive) | 16.8 µM (inactive) | 32.7 µM (inactive) | 83.9 µM (inactive) | 39.6 µM (inactive) | 23.3 µM (inactive) | 16.7 µM (inactive) | 16 µM (inactive) | –
COc1cc(C2(C)SCCCS2)c(I)c(OC)c1OC | > 100 µM (inactive) | > 100 µM (inactive) | > 100 µM (inactive) | 87.5 µM (inactive) | > 100 µM (inactive) | > 100 µM (inactive) | > 100 µM (inactive) | > 100 µM (inactive) | > 100 µM (inactive) | > 100 µM (inactive) | – | > 100 µM (inactive) | > 100 µM (inactive) | > 100 µM (inactive) | > 100 µM (inactive) | > 100 µM (inactive) | > 100 µM (inactive) | > 100 µM (inactive) | > 100 µM (inactive) | –
Cc1cc(NS(=O)(=O)c2ccc(NC(=O)c3ccc(Cl)c4c(Nc5ccc(S(=O)(=O)N=C(N)N)cc5)c5ccccc5nc34)cc2)no1 | > 100 µM (inactive) | – | 36 µM (inactive) | 39 µM (inactive) | > 100 µM (inactive) | > 100 µM (inactive) | > 100 µM (inactive) | 27 µM (inactive) | 68.5 µM (inactive) | 38.2 µM (inactive) | 19.2 µM (inactive) | 42.3 µM (inactive) | 30.5 µM (inactive) | – | > 100 µM (inactive) | 39.7 µM (inactive) | > 100 µM (inactive) | 87.5 µM (inactive) | 44.3 µM (inactive) | –
COC(=O)/C(=N\NC(=S)NN)C(C(=O)C(=O)Nc1ccccc1C(N)=O)c1nc2ccccc2nc1O (centres undefined) | > 100 µM (inactive) | > 100 µM (inactive) | > 100 µM (inactive) | > 100 µM (inactive) | > 100 µM (inactive) | 7.69 µM (inactive) | – | – | > 100 µM (inactive) | > 100 µM (inactive) | > 100 µM (inactive) | > 100 µM (inactive) | > 100 µM (inactive) | > 100 µM (inactive) | – | > 100 µM (inactive) | > 100 µM (inactive) | > 100 µM (inactive) | > 100 µM (inactive) | –
CC(=O)OC1CC2C(C)(C)C(=O)C=C[C@]2(C)C2CCC3(C)C(c4ccoc4)C(=O)C4OC43[C@]12C (some centres undefined) | 24.2 µM (inactive) | 18.1 µM (inactive) | 13 µM (inactive) | 13.1 µM (inactive) | 17.2 µM (inactive) | 15.3 µM (inactive) | 17.1 µM (inactive) | 18.3 µM (inactive) | 15.1 µM (inactive) | 20.8 µM (inactive) | – | 21.7 µM (inactive) | 20.1 µM (inactive) | 15.7 µM (inactive) | 13.2 µM (inactive) | 31.3 µM (inactive) | 20.2 µM (inactive) | 16.9 µM (inactive) | 14.2 µM (inactive) | –
Cc1cccc(C)c1NC(=O)CCc1n[nH]c(=S)o1 | > 100 µM (inactive) | 30.8 µM (inactive) | 20.4 µM (inactive) | 36.2 µM (inactive) | > 100 µM (inactive) | > 100 µM (inactive) | > 100 µM (inactive) | > 100 µM (inactive) | > 100 µM (inactive) | > 100 µM (inactive) | – | > 100 µM (inactive) | > 100 µM (inactive) | > 100 µM (inactive) | > 100 µM (inactive) | > 100 µM (inactive) | > 100 µM (inactive) | > 100 µM (inactive) | > 100 µM (inactive) | –
CCOC(=O)C(NO)C(Sc1ccccc1)c1ccc(OC)cc1 (centres undefined) | 71.3 µM (inactive) | 35.3 µM (inactive) | 34.9 µM (inactive) | – | > 100 µM (inactive) | > 100 µM (inactive) | 44.4 µM (inactive) | 91 µM (inactive) | – | > 100 µM (inactive) | 23.9 µM (inactive) | > 100 µM (inactive) | > 100 µM (inactive) | 30.7 µM (inactive) | > 100 µM (inactive) | > 100 µM (inactive) | 68.5 µM (inactive) | > 100 µM (inactive) | 37.6 µM (inactive) | –
COc1ccc(N2C(=O)/C(=C/c3ccc(N(CCC#N)CCC#N)cc3C)N=C2/C=C\c2ccccc2)cc1 | 18.6 µM (inactive) | 26.7 µM (inactive) | 76.6 µM (inactive) | 40.1 µM (inactive) | 4.73 µM (inactive) | 49.5 µM (inactive) | 33.4 µM (inactive) | > 100 µM (inactive) | 47 µM (inactive) | 42.7 µM (inactive) | – | 22.6 µM (inactive) | 10.8 µM (inactive) | 31.9 µM (inactive) | 49.7 µM (inactive) | > 100 µM (inactive) | 14 µM (inactive) | 31.4 µM (inactive) | 5.24 µM (inactive) | –
COc1cccc(/C=C(/C(=O)O)c2cc(OC)c(OC)c(OC)c2)c1 | > 100 µM (inactive) | > 100 µM (inactive) | > 100 µM (inactive) | 51.8 µM (inactive) | > 100 µM (inactive) | – | > 100 µM (inactive) | > 100 µM (inactive) | > 100 µM (inactive) | > 100 µM (inactive) | 45.2 µM (inactive) | > 100 µM (inactive) | > 100 µM (inactive) | > 100 µM (inactive) | – | > 100 µM (inactive) | > 100 µM (inactive) | > 100 µM (inactive) | > 100 µM (inactive) | –
O=C(O)c1ccccc1C(=O)Nc1cc2c(cc1Br)-c1ccccc1C2=O | > 100 µM (inactive) | 68.5 µM (inactive) | > 100 µM (inactive) | > 100 µM (inactive) | – | > 100 µM (inactive) | > 100 µM (inactive) | 40.6 µM (inactive) | > 100 µM (inactive) | > 100 µM (inactive) | 48 µM (inactive) | > 100 µM (inactive) | > 100 µM (inactive) | > 100 µM (inactive) | > 100 µM (inactive) | > 100 µM (inactive) | > 100 µM (inactive) | 6.61 µM (inactive) | > 100 µM (inactive) | > 100 µM (inactive)
COC(=O)c1c2c(c3[nH]c4ccccc4c3c1C(=O)OC)C(=O)C1=C(C2=O)C2(Cl)C(Cl)C(Cl)C1(Cl)C2(Cl)Cl (centres undefined) | 1.92 µM (inactive) | 1.81 µM (inactive) | 2.02 µM (inactive) | 2.01 µM (inactive) | – | 1.7 µM (inactive) | 3.2 µM (inactive) | 2.33 µM (inactive) | 1.84 µM (inactive) | 1.75 µM (inactive) | 1.71 µM (inactive) | 0.436 µM (active) | 2.07 µM (inactive) | 1.31 µM (inactive) | 4.36 µM (inactive) | 3.4 µM (inactive) | 2.82 µM (inactive) | 1.56 µM (inactive) | 1.99 µM (inactive) | 0.705 µM (active)
O=C(O)c1nccnc1C(=O)O | – | > 100 µM (inactive) | > 100 µM (inactive) | > 100 µM (inactive) | > 100 µM (inactive) | > 100 µM (inactive) | > 100 µM (inactive) | – | > 100 µM (inactive) | – | > 100 µM (inactive) | > 100 µM (inactive) | > 100 µM (inactive) | > 100 µM (inactive) | > 100 µM (inactive) | > 100 µM (inactive) | > 100 µM (inactive) | > 100 µM (inactive) | > 100 µM (inactive) | –
COC1CC(C)(NC(=O)C(F)(F)F)C2OC(c3ccccc3)OCC2O1 (centres undefined) | > 100 µM (inactive) | > 100 µM (inactive) | > 100 µM (inactive) | > 100 µM (inactive) | – | > 100 µM (inactive) | > 100 µM (inactive) | > 100 µM (inactive) | > 100 µM (inactive) | > 100 µM (inactive) | > 100 µM (inactive) | > 100 µM (inactive) | > 100 µM (inactive) | > 100 µM (inactive) | > 100 µM (inactive) | > 100 µM (inactive) | > 100 µM (inactive) | > 100 µM (inactive) | > 100 µM (inactive) | > 100 µM (inactive)
